Experimental data: ChEMBL document CHEMBL4304811, “Development of a Water-Soluble Indolylmaleimide Derivative IM-93 Showing Dual Inhibition of Ferroptosis and NETosis” (ACS Med Chem Lett, 2019)

Experiments:
[1] = molecular target: Serine/threonine-protein kinase pim-2 (Homo sapiens) (UniProt Q9P1W9); assay: Binding affinity to wild-type human partial length PIM2 (M1 to E291 residues) expressed in bacterial expression system assessed as residual binding level at 10 uM by Kinomescan method relative to control
[2] = test system: Mast/stem cell growth factor receptor Kit (Homo sapiens), P10721 [V559D]; assay: Binding affinity to human partial length KIT V559D mutant (Y545 to D952 residues) expressed in bacterial expression system assessed as residual binding level at 10 uM by Kinomescan method relative to control
[3] = molecular target: Dual specificity protein kinase TTK (Homo sapiens) (UniProt P33981); assay: Binding affinity to wild-type human partial length TTK (N505 to V798 residues) expressed in bacterial expression system assessed as residual binding level at 10 uM by Kinomescan method relative to control
[4] = molecular target: Serine/threonine-protein kinase DCLK2 (Homo sapiens) (UniProt Q8N568); assay: Binding affinity to wild-type human partial length DCAMKL2 (K273 to V664 residues) expressed in bacterial expression system assessed as residual binding level at 10 uM by Kinomescan method relative to control
[5] = molecular target: Serine/threonine-protein kinase MRCK alpha (Homo sapiens) (UniProt Q5VT25); assay: Binding affinity to wild-type human partial length MRCKA (L57 to V418 residues) expressed in bacterial expression system assessed as residual binding level at 10 uM by Kinomescan method relative to control
[6] = molecular target: Rhodopsin kinase GRK7 (Homo sapiens) (UniProt Q8WTQ7); assay: Binding affinity to wild-type human full length GRK7 (M1 to L553 residues) expressed in mammalian expression system assessed as residual binding level at 10 uM by Kinomescan method relative to control
[7] = molecular target: Aurora kinase C (Homo sapiens) (UniProt Q9UQB9); assay: Binding affinity to wild-type human full length AURKC (M1 to S275 residues) expressed in bacterial expression system assessed as residual binding level at 10 uM by Kinomescan method relative to control
[8] = test system: Tyrosine-protein kinase ABL1 (Homo sapiens), P00519 [E255K]; assay: Binding affinity to human phosphorylated ABL1 E255K mutant (S229 to K512 residues) expressed in mammalian expression system assessed as residual binding level at 10 uM by Kinomescan method relative to control
[9] = molecular target: Inhibitor of nuclear factor kappa-B kinase subunit beta (Homo sapiens) (UniProt O14920); assay: Binding affinity to wild-type human full length IKK-beta (M1 to S756 residues) expressed in mammalian expression system assessed as residual binding level at 10 uM by Kinomescan method relative to control
[10] = molecular target: Calcium/calmodulin-dependent protein kinase type IV (Homo sapiens) (UniProt Q16566); assay: Binding affinity to wild-type human partial length CAMK4 (A22 to A322 residues) expressed in bacterial expression system assessed as residual binding level at 10 uM by Kinomescan method relative to control
[11] = test system: Tyrosine-protein kinase ABL1 (Homo sapiens), P00519 [T315I]; assay: Binding affinity to human phosphorylated ABL1 T315I mutant (S229 to K512 residues) expressed in mammalian expression system assessed as residual binding level at 10 uM by Kinomescan method relative to control
[12] = molecular target: Misshapen-like kinase 1 (Homo sapiens) (UniProt Q8N4C8); assay: Binding affinity to wild-type human partial length MINK (M1 to K312 residues) expressed in mammalian expression system assessed as residual binding level at 10 uM by Kinomescan method relative to control
[13] = molecular target: Mitogen-activated protein kinase kinase kinase 11 (Homo sapiens) (UniProt Q16584); assay: Binding affinity to wild-type human partial length MLK3 (I77 to W399 residues) expressed in bacterial expression system assessed as residual binding level at 10 uM by Kinomescan method relative to control
[14] = molecular target: Ephrin type-B receptor 6 (Homo sapiens) (UniProt O15197); assay: Binding affinity to wild-type human partial length EPHB6 (Q634 to P948 residues) expressed in mammalian expression system assessed as residual binding level at 10 uM by Kinomescan method relative to control
[15] = test system: Epidermal growth factor receptor (Homo sapiens), P00533 [L861Q]; assay: Binding affinity to human partial length EGFR L861Q mutant (R669 to V1011 residues) expressed in bacterial expression system assessed as residual binding level at 10 uM by Kinomescan method relative to control
[16] = molecular target: Bone morphogenetic protein receptor type-2 (Homo sapiens) (UniProt Q13873); assay: Binding affinity to wild-type human partial length BMPR2 (R179 to Q526 residues) expressed in mammalian expression system assessed as residual binding level at 10 uM by Kinomescan method relative to control
[17] = molecular target: Dual specificity protein kinase CLK3 (Homo sapiens) (UniProt P49761); assay: Binding affinity to wild-type human full length CLK3 (M1 to R490 residues) expressed in bacterial expression system assessed as residual binding level at 10 uM by Kinomescan method relative to control
[18] = molecular target: Mitogen-activated protein kinase kinase kinase kinase 1 (Homo sapiens) (UniProt Q92918); assay: Binding affinity to wild-type human full length HPK1 (M1 to R799 residues) expressed in bacterial expression system assessed as residual binding level at 10 uM by Kinomescan method relative to control
[19] = molecular target: Ribosomal protein S6 kinase alpha-5 (Homo sapiens) (UniProt O75582); assay: Binding affinity to wild-type human partial length C-terminal RPS6KA5 kinase domain 2 (V390 to T718 residues) expressed in bacterial expression system assessed as residual binding level at 10 uM by Kinomescan method relative to control
[20] = molecular target: Tyrosine-protein kinase receptor Tie-1 (Homo sapiens) (UniProt P35590); assay: Binding affinity to wild-type human partial length TIE1 (T819 to A1138 residues) expressed in bacterial expression system assessed as residual binding level at 10 uM by Kinomescan method relative to control
[21] = test system: Phosphatidylinositol 4,5-bisphosphate 3-kinase catalytic subunit alpha isoform (Homo sapiens), P42336 [E545A]; assay: Binding affinity to human partial length PIK3CA E545A mutant (R108 to N1068 residues) expressed in mammalian expression system assessed as residual binding level at 10 uM by Kinomescan method relative to control
[22] = molecular target: Serine/threonine-protein kinase LATS1 (Homo sapiens) (UniProt O95835); assay: Binding affinity to wild-type human partial length LATS1 (Q678 to V1130 residues) expressed in bacterial expression system assessed as residual binding level at 10 uM by Kinomescan method relative to control
[23] = molecular target: Ribosomal protein S6 kinase alpha-5 (Homo sapiens) (UniProt O75582); assay: Binding affinity to wild-type human partial length N- terminal RPS6KA5 kinase domain 1 expressed in bacterial expression system assessed as residual binding level at 10 uM by Kinomescan method relative to control
[24] = molecular target: Serine/threonine-protein kinase 32B (Homo sapiens) (UniProt Q9NY57); assay: Binding affinity to wild-type human full length YANK2 (M1 to S414 residues) expressed in bacterial expression system assessed as residual binding level at 10 uM by Kinomescan method relative to control

Chain of Ribosomal protein S6 kinase alpha-5 (Homo sapiens) (O75582 whole entry, looked up, the tested form may be a part): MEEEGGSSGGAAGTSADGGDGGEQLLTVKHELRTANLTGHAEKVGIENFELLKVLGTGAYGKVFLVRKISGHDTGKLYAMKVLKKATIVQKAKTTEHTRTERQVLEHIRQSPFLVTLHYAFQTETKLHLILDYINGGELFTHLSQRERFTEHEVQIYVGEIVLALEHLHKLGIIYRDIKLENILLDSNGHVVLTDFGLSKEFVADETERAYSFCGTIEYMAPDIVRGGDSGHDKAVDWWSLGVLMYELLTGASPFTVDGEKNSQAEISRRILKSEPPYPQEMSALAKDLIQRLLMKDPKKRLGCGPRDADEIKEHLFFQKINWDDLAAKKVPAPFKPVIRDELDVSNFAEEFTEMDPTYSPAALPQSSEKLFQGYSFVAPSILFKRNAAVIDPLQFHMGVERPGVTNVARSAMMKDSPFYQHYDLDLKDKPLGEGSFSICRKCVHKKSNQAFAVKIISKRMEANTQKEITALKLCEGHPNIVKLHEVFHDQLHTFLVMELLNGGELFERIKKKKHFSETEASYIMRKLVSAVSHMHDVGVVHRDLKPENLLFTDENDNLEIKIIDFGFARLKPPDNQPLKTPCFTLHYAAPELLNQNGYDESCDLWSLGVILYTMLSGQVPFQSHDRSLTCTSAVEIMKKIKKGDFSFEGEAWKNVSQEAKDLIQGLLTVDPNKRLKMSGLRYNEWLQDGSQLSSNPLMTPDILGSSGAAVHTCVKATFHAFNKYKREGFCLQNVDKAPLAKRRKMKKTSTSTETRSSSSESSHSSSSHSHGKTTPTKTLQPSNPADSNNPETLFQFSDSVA
Chain of Misshapen-like kinase 1 (Homo sapiens) (Q8N4C8 whole entry, looked up, the tested form may be a part): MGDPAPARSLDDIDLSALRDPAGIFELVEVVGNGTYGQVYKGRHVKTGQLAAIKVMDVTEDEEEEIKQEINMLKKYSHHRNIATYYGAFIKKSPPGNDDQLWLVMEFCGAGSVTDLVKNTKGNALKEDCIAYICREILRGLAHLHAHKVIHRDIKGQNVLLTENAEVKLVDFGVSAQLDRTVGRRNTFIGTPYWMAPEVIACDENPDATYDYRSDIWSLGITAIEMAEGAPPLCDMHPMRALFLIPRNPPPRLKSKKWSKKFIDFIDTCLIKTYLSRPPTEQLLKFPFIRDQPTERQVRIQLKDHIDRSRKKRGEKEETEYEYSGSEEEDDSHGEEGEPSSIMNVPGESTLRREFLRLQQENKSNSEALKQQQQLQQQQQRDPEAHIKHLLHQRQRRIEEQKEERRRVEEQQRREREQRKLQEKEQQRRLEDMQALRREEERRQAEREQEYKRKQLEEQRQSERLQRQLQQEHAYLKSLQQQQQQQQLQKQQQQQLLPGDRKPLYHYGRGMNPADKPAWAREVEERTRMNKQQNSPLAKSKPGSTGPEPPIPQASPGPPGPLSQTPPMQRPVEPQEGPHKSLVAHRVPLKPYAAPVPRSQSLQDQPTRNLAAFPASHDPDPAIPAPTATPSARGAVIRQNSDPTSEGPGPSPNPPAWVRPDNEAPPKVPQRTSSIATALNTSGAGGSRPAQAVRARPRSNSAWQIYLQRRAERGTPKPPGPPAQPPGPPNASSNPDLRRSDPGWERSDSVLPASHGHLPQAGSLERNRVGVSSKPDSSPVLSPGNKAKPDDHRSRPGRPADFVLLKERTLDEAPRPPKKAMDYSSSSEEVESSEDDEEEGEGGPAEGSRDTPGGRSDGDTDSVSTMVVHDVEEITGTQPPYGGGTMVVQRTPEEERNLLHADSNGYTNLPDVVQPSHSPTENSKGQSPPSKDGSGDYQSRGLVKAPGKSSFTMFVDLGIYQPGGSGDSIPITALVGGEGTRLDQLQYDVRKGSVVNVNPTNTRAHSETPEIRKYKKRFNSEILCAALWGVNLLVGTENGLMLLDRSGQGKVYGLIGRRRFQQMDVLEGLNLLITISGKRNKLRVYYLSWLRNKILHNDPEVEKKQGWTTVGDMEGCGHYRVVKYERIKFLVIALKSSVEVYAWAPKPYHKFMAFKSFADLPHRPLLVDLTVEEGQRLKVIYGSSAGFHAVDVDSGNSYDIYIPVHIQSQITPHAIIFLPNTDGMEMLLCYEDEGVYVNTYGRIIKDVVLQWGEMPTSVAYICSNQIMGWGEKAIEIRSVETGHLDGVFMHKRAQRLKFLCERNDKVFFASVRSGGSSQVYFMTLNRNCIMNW
Chain of Phosphatidylinositol 4,5-bisphosphate 3-kinase catalytic subunit alpha isoform (Homo sapiens), P42336 [E545A] (P42336 whole entry E545A, the tested form may be a part, canonical isoform): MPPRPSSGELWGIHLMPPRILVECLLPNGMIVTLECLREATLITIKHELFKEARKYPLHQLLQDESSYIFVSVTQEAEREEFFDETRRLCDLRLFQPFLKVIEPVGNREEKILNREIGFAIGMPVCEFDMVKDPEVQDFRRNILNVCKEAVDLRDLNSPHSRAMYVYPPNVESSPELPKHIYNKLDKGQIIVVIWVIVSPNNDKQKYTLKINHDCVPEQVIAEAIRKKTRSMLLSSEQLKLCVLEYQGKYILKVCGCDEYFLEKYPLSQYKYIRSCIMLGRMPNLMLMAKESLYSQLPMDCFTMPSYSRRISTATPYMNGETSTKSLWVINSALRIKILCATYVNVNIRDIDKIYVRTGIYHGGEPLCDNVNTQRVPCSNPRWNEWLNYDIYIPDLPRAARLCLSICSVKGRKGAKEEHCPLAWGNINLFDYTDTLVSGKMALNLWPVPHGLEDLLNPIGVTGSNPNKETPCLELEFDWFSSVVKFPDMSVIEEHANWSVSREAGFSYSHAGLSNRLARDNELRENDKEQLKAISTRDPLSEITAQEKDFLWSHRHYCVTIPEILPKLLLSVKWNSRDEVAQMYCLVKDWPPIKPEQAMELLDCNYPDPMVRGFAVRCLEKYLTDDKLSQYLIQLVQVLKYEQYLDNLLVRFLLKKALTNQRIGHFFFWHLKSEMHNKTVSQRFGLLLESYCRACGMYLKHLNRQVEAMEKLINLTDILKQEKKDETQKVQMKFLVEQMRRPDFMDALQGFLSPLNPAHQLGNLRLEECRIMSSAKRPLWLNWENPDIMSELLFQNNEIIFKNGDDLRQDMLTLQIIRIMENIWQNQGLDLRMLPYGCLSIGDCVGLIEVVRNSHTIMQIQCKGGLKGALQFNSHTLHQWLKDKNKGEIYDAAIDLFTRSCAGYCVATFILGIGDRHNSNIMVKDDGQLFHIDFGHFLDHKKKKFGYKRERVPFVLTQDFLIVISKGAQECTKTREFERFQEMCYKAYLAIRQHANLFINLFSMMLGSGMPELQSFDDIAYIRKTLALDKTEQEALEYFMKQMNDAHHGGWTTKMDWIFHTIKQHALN
Chain of Ephrin type-B receptor 6 (Homo sapiens) (O15197 whole entry, the tested form may be a part): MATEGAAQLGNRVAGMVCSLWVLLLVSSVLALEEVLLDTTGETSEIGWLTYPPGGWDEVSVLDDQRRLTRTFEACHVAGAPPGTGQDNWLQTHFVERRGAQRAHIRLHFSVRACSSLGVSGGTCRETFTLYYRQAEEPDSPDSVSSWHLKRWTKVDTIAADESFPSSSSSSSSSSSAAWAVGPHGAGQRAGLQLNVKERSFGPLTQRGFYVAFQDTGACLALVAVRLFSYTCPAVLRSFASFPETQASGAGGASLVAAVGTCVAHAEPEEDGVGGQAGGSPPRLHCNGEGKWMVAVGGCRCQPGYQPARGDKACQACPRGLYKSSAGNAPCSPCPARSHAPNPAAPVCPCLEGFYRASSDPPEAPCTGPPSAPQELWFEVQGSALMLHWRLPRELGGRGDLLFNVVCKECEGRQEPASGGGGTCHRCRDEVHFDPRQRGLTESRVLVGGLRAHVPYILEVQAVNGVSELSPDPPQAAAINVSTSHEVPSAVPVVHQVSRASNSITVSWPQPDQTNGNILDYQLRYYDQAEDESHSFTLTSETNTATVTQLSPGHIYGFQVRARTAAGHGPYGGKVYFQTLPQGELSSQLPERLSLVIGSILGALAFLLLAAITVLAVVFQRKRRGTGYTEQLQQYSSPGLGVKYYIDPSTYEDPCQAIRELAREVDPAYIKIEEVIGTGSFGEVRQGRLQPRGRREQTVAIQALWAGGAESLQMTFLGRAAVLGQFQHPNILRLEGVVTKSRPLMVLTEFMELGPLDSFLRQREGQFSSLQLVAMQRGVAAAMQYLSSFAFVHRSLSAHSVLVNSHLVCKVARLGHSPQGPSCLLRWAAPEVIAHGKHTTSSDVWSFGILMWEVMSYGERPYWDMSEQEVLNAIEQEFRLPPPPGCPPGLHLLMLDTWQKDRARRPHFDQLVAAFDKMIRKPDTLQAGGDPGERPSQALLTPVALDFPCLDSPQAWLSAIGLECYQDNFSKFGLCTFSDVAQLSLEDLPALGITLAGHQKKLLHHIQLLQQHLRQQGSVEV
Chain of Mitogen-activated protein kinase kinase kinase 11 (Homo sapiens) (Q16584 whole entry, looked up, the tested form may be a part): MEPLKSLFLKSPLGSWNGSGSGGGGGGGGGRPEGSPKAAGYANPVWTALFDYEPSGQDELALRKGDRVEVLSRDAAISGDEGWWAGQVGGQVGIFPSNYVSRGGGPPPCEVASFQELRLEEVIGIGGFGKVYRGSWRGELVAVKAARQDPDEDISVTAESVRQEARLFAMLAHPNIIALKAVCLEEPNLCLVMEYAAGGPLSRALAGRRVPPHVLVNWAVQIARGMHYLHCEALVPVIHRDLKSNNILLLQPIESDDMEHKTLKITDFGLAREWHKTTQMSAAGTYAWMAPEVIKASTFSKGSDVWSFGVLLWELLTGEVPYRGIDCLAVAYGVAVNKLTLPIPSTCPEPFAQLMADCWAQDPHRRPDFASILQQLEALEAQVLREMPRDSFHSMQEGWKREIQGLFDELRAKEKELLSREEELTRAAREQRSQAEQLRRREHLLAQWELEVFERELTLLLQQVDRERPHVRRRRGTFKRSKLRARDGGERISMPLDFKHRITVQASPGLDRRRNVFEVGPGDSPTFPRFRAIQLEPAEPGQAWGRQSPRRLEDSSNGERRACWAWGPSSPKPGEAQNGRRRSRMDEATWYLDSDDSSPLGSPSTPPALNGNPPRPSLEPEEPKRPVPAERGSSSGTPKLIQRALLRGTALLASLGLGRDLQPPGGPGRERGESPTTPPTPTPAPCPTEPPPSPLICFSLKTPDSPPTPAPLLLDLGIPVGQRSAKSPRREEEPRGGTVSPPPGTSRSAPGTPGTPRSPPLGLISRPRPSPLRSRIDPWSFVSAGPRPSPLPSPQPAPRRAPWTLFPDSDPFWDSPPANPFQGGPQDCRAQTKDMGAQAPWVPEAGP

SMILES: CC(C)N1C(=O)C(NCCCN(C)C)=C(c2cn(C)c3ccccc23)C1=O.Cl
- Activity [1]: 100%
- Activity [2]: 96%
- Activity [3]: 100%
- Activity [4]: 94%
- Activity [5]: 98%
- Activity [6]: 97%
- Activity [7]: 92%
- Activity [8]: 89%
- Activity [9]: 83%
- Activity [10]: 80%
- Activity [11]: 90%
- Activity [12]: 94%
- Activity [13]: 91%
- Activity [14]: 74%
- Activity [15]: 80%
- Activity [16]: 100%
- Activity [17]: 92%
- Activity [18]: 100%
- Activity [19]: 96%
- Activity [20]: 92%
- Activity [21]: 95%
- Activity [22]: 96%
- Activity [23]: 97%
- Activity [24]: 99%
